In PubChem BioAssay AID1963848 (Molecular Pharmacology Branch, DTP, NCI, 2024):

Tested on: 379773-124-R-J2-PDC spheroid viability
Assay: Anticancer human tumor 379773-124-R-J2-PDC patient-derived endometrial carcinoma cell line growth inhibition [POLQ]
Conditions: spheroids with HUVEC and MSC; for IC50: curve of first compound; for viability, T/C: stronger effect = lower value
How it was run: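 PDC + HUVEC + MSC complex spheroids; POLQ inhibitors ± partner drugs; top conc. at/near clinical Cmax, else 10 microM (SN-38 1 microM), half-log dilutions; 37 degrees C, 5% CO2.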

[1] = second compound 0.0316 µM, first compound 0.0316 µM
[2] = second compound 0.0316 µM, first compound 0.1 µM
[3] = second compound 0.0316 µM, first compound 0.316 µM
[4] = second compound 0.0316 µM, first compound 1 µM
[5] = second compound 0.0316 µM, first compound 3.16 µM
[6] = second compound 0.0316 µM, first compound 10 µM
[7] = second compound 0.1 µM, first compound 0.0316 µM
[8] = second compound 0.1 µM, first compound 0.1 µM
[9] = second compound 0.1 µM, first compound 0.316 µM
[10] = second compound 0.1 µM, first compound 1 µM
[11] = second compound 0.1 µM, first compound 3.16 µM
[12] = second compound 0.1 µM, first compound 10 µM
[13] = second compound 0.316 µM, first compound 0.0316 µM
[14] = second compound 0.316 µM, first compound 0.1 µM
[15] = second compound 0.316 µM, first compound 0.316 µM
[16] = second compound 0.316 µM, first compound 1 µM
[17] = second compound 0.316 µM, first compound 3.16 µM
[18] = second compound 0.316 µM, first compound 10 µM
[19] = second compound 1 µM, first compound 0.0316 µM
[20] = second compound 1 µM, first compound 0.1 µM
[21] = second compound 1 µM, first compound 0.316 µM
[22] = second compound 1 µM, first compound 1 µM
[23] = second compound 1 µM, first compound 3.16 µM
[24] = second compound 1 µM, first compound 10 µM
[25] = second compound 3.16 µM, first compound 0.0316 µM
[26] = second compound 3.16 µM, first compound 0.1 µM
[27] = second compound 3.16 µM, first compound 0.316 µM
[28] = second compound 3.16 µM, first compound 1 µM
[29] = second compound 3.16 µM, first compound 3.16 µM
[30] = second compound 3.16 µM, first compound 10 µM
[31] = second compound 10 µM, first compound 0.0316 µM
[32] = second compound 10 µM, first compound 0.1 µM
[33] = second compound 10 µM, first compound 0.316 µM
[34] = second compound 10 µM, first compound 1 µM
[35] = second compound 10 µM, first compound 3.16 µM
[36] = second compound 10 µM, first compound 10 µM
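Also: spheroids exposed to drugs for seven days before readout.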
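For viability, T/C in this document: percent viability relative to DMSO vehicle control taken as 100%.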

COc1cc2cc(C(=O)CCC(=O)O)sc2cc1OC + COC1C(OC(N)=O)C(O)C(Oc2ccc3c(O)c(NC(=O)c4ccc(O)c(CC=C(C)C)c4)c(=O)oc3c2C)OC1(C)C
IC50 (second compound 0.0316 µM): > 10 µM | IC50 (second compound 0.1 µM): > 10 µM | IC50 (second compound 0.316 µM): > 10 µM | IC50 (second compound 1 µM): > 10 µM | IC50 (second compound 3.16 µM): > 10 µM | IC50 (second compound 10 µM): > 10 µM | viability, T/C [1]: 85.9% | viability, T/C [2]: 75.8% | viability, T/C [3]: 92.1% | viability, T/C [4]: 82.5% | viability, T/C [5]: 78% | viability, T/C [6]: 91.4% | viability, T/C [7]: 88.2% | viability, T/C [8]: 82% | viability, T/C [9]: 90.2% | viability, T/C [10]: 83.3% | viability, T/C [11]: 85.5% | viability, T/C [12]: 96.6% | viability, T/C [13]: 96% | viability, T/C [14]: 83.6% | viability, T/C [15]: 76.5% | viability, T/C [16]: 82.1% | viability, T/C [17]: 81% | viability, T/C [18]: 84.6% | viability, T/C [19]: 82.7% | viability, T/C [20]: 84.1% | viability, T/C [21]: 90.9% | viability, T/C [22]: 89% | viability, T/C [23]: 90% | viability, T/C [24]: 78.2% | viability, T/C [25]: 99.9% | viability, T/C [26]: 82.5% | viability, T/C [27]: 78.1% | viability, T/C [28]: 78.7% | viability, T/C [29]: 90.2% | viability, T/C [30]: 85.3% | viability, T/C [31]: 92.8% | viability, T/C [32]: 86.1% | viability, T/C [33]: 86% | viability, T/C [34]: 69.2% | viability, T/C [35]: 86.1% | viability, T/C [36]: 95.4%

O=C(Nc1ccc(O)c(NS(=O)(=O)c2ccc(F)cc2)c1)c1ccc(-c2ccccc2)cc1 + COC1C(OC(N)=O)C(O)C(Oc2ccc3c(O)c(NC(=O)c4ccc(O)c(CC=C(C)C)c4)c(=O)oc3c2C)OC1(C)C
IC50 (second compound 0.0316 µM): > 10 µM | IC50 (second compound 0.1 µM): > 10 µM | IC50 (second compound 0.316 µM): > 10 µM | IC50 (second compound 1 µM): > 10 µM | IC50 (second compound 3.16 µM): > 10 µM | IC50 (second compound 10 µM): > 10 µM | viability, T/C [1]: 88.1% | viability, T/C [2]: 79.6% | viability, T/C [3]: 87.4% | viability, T/C [4]: 75% | viability, T/C [5]: 82.5% | viability, T/C [6]: 76.2% | viability, T/C [7]: 83.5% | viability, T/C [8]: 77.2% | viability, T/C [9]: 99.9% | viability, T/C [10]: 79.5% | viability, T/C [11]: 75.8% | viability, T/C [12]: 74% | viability, T/C [13]: 82% | viability, T/C [14]: 92.8% | viability, T/C [15]: 95.6% | viability, T/C [16]: 73.4% | viability, T/C [17]: 86.4% | viability, T/C [18]: 67.1% | viability, T/C [19]: 95.1% | viability, T/C [20]: 73.5% | viability, T/C [21]: 79.8% | viability, T/C [22]: 79% | viability, T/C [23]: 83.9% | viability, T/C [24]: 70.1% | viability, T/C [25]: 79.2% | viability, T/C [26]: 88.2% | viability, T/C [27]: 77.9% | viability, T/C [28]: 80.7% | viability, T/C [29]: 90.3% | viability, T/C [30]: 83.3% | viability, T/C [31]: 84.4% | viability, T/C [32]: 78.9% | viability, T/C [33]: 80.7% | viability, T/C [34]: 80.4% | viability, T/C [35]: 75.3% | viability, T/C [36]: 74.6%
